The values that follow are results of earlier work, collected in US20080057111A1 (priority 2006, published 2008).

Data set [1] relates to severe acute respiratory syndrome (SARS) virus. Conditions: recent report.

As for `C=CCC(=NOS(=O)(=O)O)S[C@@H]1O[C@H](CO)[C@@H](O)[C@H](O)[C@H]1O` (stereo in doubt) [sinigrin], in data set [1], the “effect on SARS virus” value is “inhibitory effect”.

As to `O=C(O)c1ccccc1` [benzoic acid], the “anti-endotoxin activity in vivo” value was “anti-endotoxin activity”.

Take `CC[C@H](CC[C@@H](C)[C@H]1CC[C@H]2[C@@H]3CC=C4C[C@@H](O)CC[C@]4(C)[C@H]3CC[C@]12C)C(C)C` [beta-sitosterol]: the “effect on SARS virus” value in data set [1] is listed as “inhibitory effect”.

Regarding `O=c1c(-c2ccc(O)cc2)coc2cc(O)ccc12` [daidzein], the “effect on SARS virus” value in data set [1] is “inhibitory effect”.

Take `COc1ccc([C@@H]2CC(=O)c3c(O)cc(O)cc3O2)cc1O` [hespertin]: the “effect on SARS virus” value in data set [1] is listed as “inhibitory effect”.

`OC[C@H]1O[C@@H](Oc2c[nH]c3ccccc23)[C@H](O)[C@@H](O)[C@@H]1O` [indican]: in data set [1], the “effect on SARS virus” value is given as “inhibitory effect”.

For `O=C1/C(=C2\Nc3ccccc3C2=O)Nc2ccccc21` [indigo], in data set [1], the “effect on SARS virus” value was “inhibitory effect”.

For `O=C(O)c1ccccc1O` [salicylic acid], the “anti-endotoxin activity in vivo” value is listed as “anti-endotoxin activity”.

With `COc1cc(C(=O)O)cc(OC)c1O` [syringic acid], the “anti-endotoxin activity in vivo” value was “anti-endotoxin activity”.

In the case of `Nc1ccccc1C(=O)O` [σ-aminobenzoic acid], the “anti-endotoxin activity in vivo” value was “anti-endotoxin activity”.
